The record followed here is patent US20130090327A1, “Inhibitors of Protein Tyrosine Kinase Activity” (METHYLGENE INC., priority 2011, published 2013).

The test system of assay [1] is choroidal neovascularization (CNV). Put plainly: In Vivo Choroidal Neovascularization (CNV) Model. To be noted: for CNV area, average: group average, Day 10, rat; for CNV area, individual animal: injection on Day 3, measured Day 10, rat; for CNV area % of control / inhibition (CNV area): versus vehicle group, rat. Details: species or system Brown-Norway rats. The source says: In Vivo Choroidal Neovascularization (CNV) Model
This test measures the capacity of compounds to inhibit CNV progression. CNV is the main cause of severe vision loss in patients suffering from age-related macular degeneration (AMD).
Male Brown-Norway rats (Charles River Japan Co., Ltd.) were used in these studies.
Rats were anesthetized by intraperitoneal injection of pentobarbital, and the right pupil was dilated with 0.5% tropicamide and 0.5% phenylephrine hydrochloride. The right eye received 6 laser burns between retinal vessels using a slit lamp delivery system of Green laser Photocoagulator (Nidex Inc., Japan), and microscope slide glass with 10 mg/mL hyaluronic acid (SIGMA) used as a contact lens. The laser power was 200 mW for 0.1 second and spot diameter was 100 μm. At the time of laser burn, bubble production was observed; which is an indication of rupture of Bruch's membrane which is important for CNV generation.
After animals were anesthetized, and the right pupil dilated (as mentioned above), the right eye of the animal received the compound or vehicle by an injection (3 μL/eye) at doses of 0.3 to 30 nmol/eye on Day 3. The compounds were dissolved or suspended in CBS, PBS, or other adequate vehicles before injection.
On Day 10, the animals were anesthetized with ether, and high molecular weight fluorescein isothiocyanate (FITC)-dextran (SIGMA, 2×106 MW) was injected via a tail vein (20 mg/rat). About 30 min after FITC-dextran injection, animals were euthanized by ether or carbon dioxide, and the eyes were removed and fixed with 10% formaline neutral buffer solution. After over 1 hour of fixation, RPE-choroid-sclera flat mounts were obtained by removing comea, lens and retina from the eyeballs. The flat mounts were mounted in 50% glycerol on a microscope slide, and the portion burned by laser was photographed using a fluorescence microscope (Nikon Corporation, excitation filter: 465-495 nm, absorption filter: 515-555 nm). The CNV area was obtained by measurement of hyper-fluorescence area observed on the photograph using Scion image.
The average CNV area of 6 burns was used as an individual value of CNV area, and the average CNV area of compound treated group was compared with that of the vehicle-treated group.

Another assay deals with T1, VEGFR2 (KDR) (Homo sapiens, UniProt P35968).
T1 construct: made in house; host or cells: Sf9 cells (Spodoptera frugiperda), baculovirus (Bac-to-Bac)
Put plainly: In Vitro Receptor Tyrosine Kinase Assay (VEGF Receptor KDR). In kind it is biochemical. The settings on record: recombinant GST-VEGFR2 806-1356, DELFIA assay, ATP 0.6 uM, enzyme 5 nM; read-out: VEGFR_IC50_UM. The source says:
In Vitro Receptor Tyrosine Kinase Assay (VEGF Receptor KDR)
This test measures the ability of compounds to inhibit the enzymatic activity of recombinant human VEGF receptor enzymatic activity.
A 1.6-kb cDNA corresponding to the catalytic domain of VEGFR2 (KDR) (Genbank accession number AF035121 amino acid 806 to 1356) is cloned into the Pst I site of the pDEST20 Gateway vector (Invitrogen) for the production of a GST-tagged version of that enzyme. This construct is used to generate recombinant baculovirus using the Bac-to-Bac™ system according to the manufacturer's instructions (Invitrogen).
The GST-VEGFR2806-1356 protein is expressed in Sf9 cells (Spodoptera frugiperda) upon infection with recombinant baculovirus construct. Briefly, Sf9 cells grown in suspension and maintained in serum-free medium (Sf900 II supplemented with gentamycin) at a cell density of about 2×10^6 cells/ml are infected with the above-mentioned viruses at a multiplicity of infection (MOI) of 0.1 during 72 hours at 27° C. with agitation at 120 rpm on a rotary shaker. Infected cells are harvested by centrifugation at 398 g for 15 min. Cell pellets are frozen at […] until purification is performed.
All steps described in cell extraction and purification are performed at 4° C. Frozen Sf9 cell pellets infected with the GST-VEGFR2806-1356 recombinant baculovirus are thawed and gently resuspended in Buffer A (PBS pH 7.3 supplemented with 1 μg/ml pepstatin, 2 μg/ml Aprotinin and leupeptin, 50 μg/ml PMSF, 50 μg/ml TLCK and 10 μM E64 and 0.5 mM DTT) using 3 ml of buffer per gram of cells. Suspension is Dounce homogenized and 1% Triton X-100 is added to the homogenate after which it is centrifuged at 22500 g, 30 min., 4° C. The supernatant (cell extract) is used as starting material for purification of GST-VEGFR2806-1356.
The supernatant is loaded onto a GST-agarose column (Sigma) equilibrated with PBS pH 7.3. Following a four column volume (CV) wash with PBS pH 7.3+1% Triton X-100 and 4 CV wash with buffer B (50 mM Tris pH 8.0, 20% glycerol and 100 mM NaCl), bound proteins are step eluted with 5 CV of buffer B supplemented with 5 mM DTT and 15 mM glutathion. GST-VEGFR2806-1356 enriched fractions from this chromatography step are pooled based on U.V. trace i.e. fractions with high O.D.280. Final GST-VEGFR2806-1356 protein preparations concentrations are about 0.7 mg/ml with purity approximating 70%. Purified GST-VEGFR2806-1356 protein stocks are aliquoted and frozen at −80° C. prior to use in enzymatic assay.
Inhibition of VEGFR/KDR is measured in a DELFIA™ assay (Perkin Elmer). The substrate poly(Glu4,Tyr) is immobilized onto black high-binding polystyrene 96-well plates. The coated plates are washed and stored at 4° C. During the assay, the enzyme is pre-incubated with inhibitor and Mg-ATP on ice in polypropylene 96-well plates for 4 minutes, and then transferred to the coated plates. The subsequent kinase reaction takes place at 30° C. for 10-minutes. ATP concentrations in the assay are 0.6 uM for VEGFR/KDR (2× the Km). Enzyme concentration is 5 nM. After incubation, the kinase reactions are quenched with EDTA and the plates are washed. Phosphorylated product is detected by incubation with Europium-labeled anti-phosphotyrosine MoAb. After washing the plates, bound MoAb is detected by time-resolved fluorescence in a Gemini SpectraMax reader (Molecular Devices). Compounds are evaluated over a range of concentrations, and IC50 values (concentration of compounds giving 50% inhibition of enzymatic activity) are determined.

Values joined by “and” are separate entries in the source; they are usually repeats but may differ in a detail not shown here. Equal entries are not always repeated.

T1 sequence (P35968 806-1356): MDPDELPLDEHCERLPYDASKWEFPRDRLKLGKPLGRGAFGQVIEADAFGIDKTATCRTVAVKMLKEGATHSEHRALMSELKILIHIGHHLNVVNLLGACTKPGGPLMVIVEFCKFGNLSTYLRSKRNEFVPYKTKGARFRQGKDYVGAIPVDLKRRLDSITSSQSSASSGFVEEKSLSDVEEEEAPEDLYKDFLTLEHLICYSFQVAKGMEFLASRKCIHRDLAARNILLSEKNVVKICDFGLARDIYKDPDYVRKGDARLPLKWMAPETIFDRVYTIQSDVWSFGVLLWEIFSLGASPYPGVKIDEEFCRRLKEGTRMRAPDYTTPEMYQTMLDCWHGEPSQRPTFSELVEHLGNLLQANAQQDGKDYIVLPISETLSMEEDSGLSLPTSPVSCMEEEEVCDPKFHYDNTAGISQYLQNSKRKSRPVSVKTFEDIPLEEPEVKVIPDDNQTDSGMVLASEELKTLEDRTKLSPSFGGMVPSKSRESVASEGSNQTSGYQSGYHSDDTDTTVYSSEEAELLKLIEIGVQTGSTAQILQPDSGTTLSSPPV

`COCCN(Cc1ccc(-c2cc3nccc(Oc4ccc(Nc5nc6cc(Cl)ccc6[nH]5)cc4F)c3s2)nc1)C(C)=O` [Compound 64]: the “CNV area, average” value is 0.085 mm^2 in assay [1] (0.3 nmol/eye); 0.077 mm^2 in assay [1] (1 nmol/eye); 0.065 mm^2 in assay [1] (3 nmol/eye); 0.045 mm^2 in assay [1] (10 nmol/eye); 0.036 mm^2 in assay [1] (30 nmol/eye). Further, the “CNV area, individual animal” value in assay [1] (0.3 nmol/eye) was 0.091 mm^2 and 0.094 mm^2 and 0.045 mm^2 and 0.050 mm^2 and 0.116 mm^2 and 0.147 mm^2 and 0.069 mm^2 and 0.084 mm^2 and 0.072 mm^2; in assay [1] (1 nmol/eye), 0.045 mm^2 and 0.092 mm^2 and 0.101 mm^2 (2×) and 0.088 mm^2 and 0.061 mm^2 and 0.109 mm^2 and 0.056 mm^2 and 0.040 mm^2; in assay [1] (3 nmol/eye), 0.070 mm^2 (2×) and 0.019 mm^2 and 0.081 mm^2 and 0.084 mm^2 and 0.062 mm^2 and 0.056 mm^2 and 0.086 mm^2 and 0.054 mm^2; in assay [1] (10 nmol/eye), 0.030 mm^2 and 0.003 mm^2 and 0.051 mm^2 and 0.058 mm^2 and 0.064 mm^2 and 0.035 mm^2 and 0.097 mm^2 and 0.039 mm^2 and 0.032 mm^2; in assay [1] (30 nmol/eye) it was 0.047 mm^2 and 0.031 mm^2 and 0.036 mm^2 and 0.048 mm^2 and 0.037 mm^2 and 0.027 mm^2 (2×) and 0.051 mm^2 and 0.019 mm^2. The “CNV area % of control” value in assay [1] (0.3 nmol/eye) is 105.6%; in assay [1] (1 nmol/eye), 95.3%; in assay [1] (3 nmol/eye), 80.0%; in assay [1] (10 nmol/eye), 56.2%; in assay [1] (30 nmol/eye), 44.4%. The “inhibition (CNV area)” value is −5.6 in assay [1] (0.3 nmol/eye); 4.7 in assay [1] (1 nmol/eye); 20.0 in assay [1] (3 nmol/eye); 43.8 in assay [1] (10 nmol/eye); 55.6 in assay [1] (30 nmol/eye). For the same molecule, the IC50 at VEGFR2 (KDR) came to 31 nM.
Take `CNC1CCN(Cc2ccc(-c3cc4nccc(Oc5ccc(NC(=O)NC6CN(C(C)=O)C6)cc5F)c4s3)nc2)CC1` [Compound 45]: the IC50 on VEGFR2 (KDR) came out at 70 nM.
On the same count and under the same terms, the figure for `CC(=O)N1CC(NC(=O)Nc2ccc(Oc3ccnc4cc(-c5ccc(CN6CCN(C)CC6)cn5)sc34)c(F)c2)C1` [Compound 51] is 100 nM.
With `CC(=O)N1CC(NC(=O)Nc2ccc(Oc3ccnc4cc(-c5ccc(CN6CCCC6=O)cn5)sc34)c(F)c2)C1` [Compound 112, 1-(1-Acetylazetidin-3-yl)-3-(3-fluoro-4-(2-(5-((2-oxopyrrolidin-1-yl)methyl)pyridin-2-yl)thieno[3,2-b]pyridin-7-yloxy)phenyl)urea], at VEGFR2 (KDR), the IC50 turned out to be 37 nM.
Still for that read-out and setting: the figure for `O=C(Nc1ccc(Oc2ccnc3cc(-c4ccc(CN5CCOC5=O)cn4)sc23)c(F)c1)NC1COC1` [Compound 105] is 25 nM; for `COCCNCc1ccc(-c2cc3nccc(Oc4ccc(Nc5nc6cc(Cl)ccc6[nH]5)cc4F)c3s2)nc1` [Compound 63, 5-Chloro-N-(3-fluoro-4-(2-(5-((2-methoxyethylamino)methyl)pyridin-2-yl)thieno[3,2-b]pyridin-7-yloxy)phenyl)-1H-benzo[d]imidazol-2-amine] it is 268 nM.
As for `COCCN(Cc1ccc(-c2cc3nccc(Oc4ccc(NC(=O)NC5COC5)c(F)c4F)c3s2)nc1)C(=O)OC(C)(C)C` [Compound 108], the IC50 at VEGFR2 (KDR) is 31 nM.
The same measure, in the same setting: the figure for `CN1CCN(Cc2ccc(-c3cc4nccc(Oc5ccc(Nc6nc7cc(Cl)ccc7[nH]6)cc5F)c4s3)nc2)CC1` [Compound 62, 5-Chloro-N-(3-fluoro-4-(2-(5-((4-methylpiperazin-1-yl)methyl)pyridin-2-yl)thieno[3,2-b]pyridin-7-yloxy)phenyl)-1H-benzo[d]imidazol-2-amine] is 44 nM; for `COCCN(Cc1ccc(-c2cc3nccc(Oc4ccc(NC(=O)NC5CN(C(C)=O)C5)cc4F)c3s2)nc1)C(C)=O` [Compound 70, N-((6-(7-(4-(3-(1-Acetylazetidin-3-yl)ureido)-2-fluorophenoxy)thieno[3,2-b]pyridin-2-yl)pyridin-3-yl)methyl)-N-(2-methoxyethyl)acetamide] it is 75 nM.
